The supplement of paper PMC8671470
Where a name gives a salt, the structure may show the parent alone.

What was measured:
Settings in all cases: 72 h
[1] = test system: myeloid leukemia patient primary cells Pat.11; assay: area under dose-response curve (viability, 1 nM-10 uM) (fraction (0-1)); higher = more sensitive
Protocol: (§1)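 AUC (0–1, higher = more sensitive) of the 5-point dose–response (1 nM–10 µM, 72 h, CellTiter-Glo) in primary AML/CML patient mononuclear cells. 0.030103 is the floor for inactive compounds.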

[2] = test system: myeloid leukemia patient primary cells Pat.15; assay: as above
Protocol: as §1

[3] = test system: myeloid leukemia patient primary cells Pat.13; assay: as above
Protocol: as §1

[4] = test system: myeloid leukemia patient primary cells Pat.10; assay: as above
Protocol: as §1

[5] = test system: myeloid leukemia patient primary cells Pat.14; assay: as above
Protocol: as §1

[6] = test system: myeloid leukemia patient primary cells Pat.4; assay: as above
Protocol: as §1

[7] = test system: myeloid leukemia patient primary cells Pat.3; assay: as above
Protocol: as §1

[8] = test system: myeloid leukemia patient primary cells Pat.7; assay: as above
Protocol: as §1

[9] = test system: myeloid leukemia patient primary cells Pat.5; assay: as above
Protocol: as §1

[10] = test system: myeloid leukemia patient primary cells Pat.6; assay: as above
Protocol: as §1

[11] = test system: myeloid leukemia patient primary cells Pat.9; assay: as above
Protocol: as §1

[12] = test system: myeloid leukemia patient primary cells Pat.8; assay: as above
Protocol: as §1

[13] = test system: myeloid leukemia patient primary cells Pat.2; assay: as above
Protocol: as §1

[14] = test system: myeloid leukemia patient primary cells Pat.1; assay: as above
Protocol: as §1

[15] = test system: myeloid leukemia patient primary cells Pat.12; assay: as above
Protocol: as §1

[16] = test system: myeloid leukemia patient primary cells Pat.11; assay: cell viability (% survival relative to DMSO control); higher = less cytotoxic
Method in brief: (§2)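 Where an area under the curve appears, it was computed with the drc and PharmacoGx R packages from log-logistic fits. Those fits used four parameters. The underlying viability data came from CellTiter-Glo after 72 h, normalised to DMSO and 10 μM proteasome-inhibitor wells, with thawed, Ficoll-purified AML or CML patient mononuclear cells at 10,000 cells/well in RPMI 1640 with 10% FBS on 384-well plates pre-printed with 70 compounds at five tenfold concentrations (1–10,000 nM) in duplicate.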

[17] = test system: myeloid leukemia patient primary cells Pat.15; assay: as above
Method in brief: as §2

[18] = test system: myeloid leukemia patient primary cells Pat.13; assay: as above
Method in brief: as §2

[19] = test system: myeloid leukemia patient primary cells Pat.10; assay: as above
Method in brief: as §2

[20] = test system: myeloid leukemia patient primary cells Pat.14; assay: as above
Method in brief: as §2

[21] = test system: myeloid leukemia patient primary cells Pat.4; assay: as above
Method in brief: as §2

[22] = test system: myeloid leukemia patient primary cells Pat.3; assay: as above
Method in brief: as §2

[23] = test system: myeloid leukemia patient primary cells Pat.7; assay: as above
Method in brief: as §2

[24] = test system: myeloid leukemia patient primary cells Pat.5; assay: as above
Method in brief: as §2

[25] = test system: myeloid leukemia patient primary cells Pat.6; assay: as above
Method in brief: as §2

[26] = test system: myeloid leukemia patient primary cells Pat.9; assay: as above
Method in brief: as §2

[27] = test system: myeloid leukemia patient primary cells Pat.8; assay: as above
Method in brief: as §2

[28] = test system: myeloid leukemia patient primary cells Pat.2; assay: as above
Method in brief: as §2

[29] = test system: myeloid leukemia patient primary cells Pat.1; assay: as above
Method in brief: as §2

[30] = test system: myeloid leukemia patient primary cells Pat.12; assay: as above
Method in brief: as §2

LAMA-84 [31] = assay: cell viability (% survival relative to DMSO control, bortezomib = 0%); higher = less cytotoxic
Method in brief: (§3)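 After 72 h at 37 °C with 5% CO2, cell viability in 384-well plates was measured by CellTiter-Glo luminescence. The plates held compounds pre-printed at 1, 10, 100, 1000 or 10000 nM in duplicate, and cells from 10 AML and 5 CML lines seeded at densities titrated to linear growth. Percent survival is the duplicate mean, normalised to vehicle as 100% and a 10 µM positive control as 0%.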

ML-2 [32] = assay: as above
Method in brief: as §3

KCL-22 [33] = assay: as above
Method in brief: as §3

THP-1 [34] = assay: as above
Method in brief: as §3

MV4-11 [35] = assay: as above
Method in brief: as §3

K-562 [36] = assay: as above
Method in brief: as §3

HL-60 [37] = assay: as above
Method in brief: as §3

KU-812 [38] = assay: as above
Method in brief: as §3

SHI-1 [39] = assay: as above
Method in brief: as §3

KG-1 [40] = assay: as above
Method in brief: as §3

Mono-Mac-6 [41] = assay: as above
Method in brief: as §3

MOLM-13 [42] = assay: as above
Method in brief: as §3

HEL [43] = assay: as above
Method in brief: as §3

NOMO-1 [44] = assay: as above
Method in brief: as §3

BV-173 [45] = assay: as above
Method in brief: as §3

LAMA-84 [46] = test system: LAMA-84
Method in brief: (§4)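 Seeded in RPMI 1640 at densities within the linear growth range, fifteen myeloid leukaemia cell lines were dispensed into 384-well plates with acoustically pre-printed compounds spanning five tenfold doses from 1 to 10,000 nM, in duplicate. The plates were kept for 72 h at 37 °C in 5% CO2 before luminescent ATP viability was measured and normalised to vehicle and to a positive control at 10 µM. Curves were fitted with a four-parameter log-logistic model. The IC50 was taken from those curves.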

ML-2 [47] = test system: ML-2
Method in brief: as §4

KCL-22 [48] = test system: KCL-22
Method in brief: as §4

THP-1 [49] = test system: THP-1
Method in brief: as §4

MV4-11 [50] = test system: MV4-11
Method in brief: as §4

K-562 [51] = test system: K-562
Method in brief: as §4

HL-60 [52] = test system: HL-60
Method in brief: as §4

KU-812 [53] = test system: KU-812
Method in brief: as §4

SHI-1 [54] = test system: SHI-1
Method in brief: as §4

KG-1 [55] = test system: KG-1
Method in brief: as §4

Mono-Mac-6 [56] = test system: Mono-Mac-6
Method in brief: as §4

MOLM-13 [57] = test system: MOLM-13
Method in brief: as §4

HEL [58] = test system: HEL
Method in brief: as §4

NOMO-1 [59] = test system: NOMO-1
Method in brief: as §4

BV-173 [60] = test system: BV-173
Method in brief: as §4

HL-60 [61] = assay: cell viability (% survival relative to DMSO control); higher = less cytotoxic
Method in brief: (§5)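 In 384-well plates, the full library was rescreened in duplicate on HL-60 cells in RPMI 1640 with 10% FBS, at 1–10,000 nM in five tenfold concentrations, for 72 h at 37 °C, 5% CO2. Each run also held DMSO or 100 nM of one of three metabolic inhibitors. Viability was measured by CellTiter-Glo and normalised to DMSO wells and to wells with proteasome inhibitor, present at 10 μM. Any area under the curve comes from four-parameter log-logistic fitting with drc and PharmacoGx.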

HL-60 [62] = assay: area under dose-response curve (viability, 1 nM-10 uM) (fraction (0-1)); higher = more sensitive
Method in brief: as §5

CN(C)C(=O)n1nnnc1Cc1ccc(-c2ccccc2)cc1
Settings | area under dose-response curve
[1] | 0.0778
[2] | 0.0943
[3] | 0.105
[4] | 0.298
[5] | 0.277
[6] | 0.115
[7] | 0.278
[8] | 0.331
[9] | 0.798
[10] | 0.0748
[11] | 0.766
[12] | 0.132
[13] | 0.0497
[14] | 0.124
[15] | 0.044

cell viability [%]
Settings | 1 nM | 10 nM | 100 nM | 1000 nM | 10000 nM
[16] | > 100 | 87.4 | 91.7 | 93.6 | 22
[17] | 94.8 | 96 | 96.2 | 89.5 | 29.8
[18] | 84.1 | 60.2 | 92.1 | 87.3 | 7.43
[19] | 96.5 | 75.2 | > 100 | 20.7 | 15.5
[20] | 97.8 | 63.7 | 95.5 | 32 | 0.671
[21] | 97.2 | 81 | 84.8 | > 100 | 2.63
[22] | > 100 | 64.8 | 82.7 | 30.3 | 2.63
[23] | > 100 | 38.7 | 73.7 | 24.8 | 13.2
[24] | 60.8 | 1.18 | 63 | 1.33 | 2.24
[25] | > 100 | 70.8 | 97.7 | > 100 | 21.8
[26] | 64 | 5.6 | 60.2 | 9.03 | 0.492
[27] | 99.4 | 97.5 | 71.9 | 85.5 | 4.49
[28] | 97.7 | 78.6 | > 100 | 99.1 | 37.3
[29] | 98.5 | 74.4 | 89.4 | 87.9 | 4.27
[30] | 94.7 | 91.7 | 90.7 | 93 | 41.2

Cc1cc(CS(=O)(=O)c2ccccc2)cc(OCc2ccc(CN3CCC[C@@H]3CO)cc2)c1 [PF-543 hydrochloride]
cell viability [%]
Settings | 1 nM | 10 nM | 100 nM | 1000 nM | 10000 nM
BV-173 [45] | 83.7 | 103 | 152 | 87.8 | 56.7
HEL [43] | 92 | 88.6 | 105 | 88.1 | 94
HL-60 [37] | 118 | 92.2 | 119 | 83.7 | 79.8
K-562 [36] | 90.4 | 113 | 131 | 91.1 | 40.4
KCL-22 [33] | 91.5 | 94.5 | 122 | 82.5 | 84.9
KG-1 [40] | 92.1 | 102 | 114 | 111 | 84.3
KU-812 [38] | 97.5 | 91.6 | 97.7 | 101 | 61
LAMA-84 [31] | 108 | 91.9 | 103 | 93.9 | 71.5
ML-2 [32] | 89.8 | 97.3 | 130 | 91 | 88.5
MOLM-13 [42] | 72.9 | 110 | 88.8 | 117 | 79.6
MV4-11 [35] | 83.5 | 104 | 119 | 103 | 65.5
Mono-Mac-6 [41] | 89.6 | 84.7 | 101 | 89.8 | 82.9
NOMO-1 [44] | 89.2 | 94.9 | 103 | 101 | 93
SHI-1 [39] | 82.3 | 109 | 100 | 84.8 | 87.9
THP-1 [34] | 89.7 | 95.5 | 111 | 94.8 | 96.5

Settings | IC50 (cell viability) [µM]
BV-173 [60] | 8.45
HEL [58] | > 10
HL-60 [52] | > 10
K-562 [51] | 4.85
KCL-22 [48] | > 10
KG-1 [55] | > 10
KU-812 [53] | > 10
LAMA-84 [46] | > 10
ML-2 [47] | > 10
MOLM-13 [57] | > 10
MV4-11 [50] | > 10
Mono-Mac-6 [56] | > 10
NOMO-1 [59] | > 10
SHI-1 [54] | > 10
THP-1 [49] | > 10

O=C(O)C(=S)Cc1c[nH]c2ccc(F)cc12
cell viability [%], HL-60 [61]
Settings | 0.001 µM | 0.01 µM | 0.1 µM | 1 µM | 10 µM
co-treatment: AZD3965 100 nM | 94 | 98.2 | 106 | 103 | 101.9
co-treatment: DMSO vehicle | 99.1 | 101 | 106 | 102 | 104
co-treatment: GSK2194069 100 nM | 90.8 | 101 | 103 | 104 | 104
co-treatment: pictilisib 100 nM | 91.7 | 99.9 | 101.8 | 101 | 97.2

HL-60 [62]
Settings | area under dose-response curve
co-treatment: AZD3965 100 nM | < 0.0301
co-treatment: DMSO vehicle | < 0.0301
co-treatment: GSK2194069 100 nM | < 0.0301
co-treatment: pictilisib 100 nM | < 0.0301

CC(C)(O)CNc1nc(Nc2ccnc(C(F)(F)F)c2)nc(-c2cccc(C(F)(F)F)n2)n1 [AG-221]
cell viability [%], HL-60 [61]
Settings | 0.001 µM | 0.01 µM | 0.1 µM | 1 µM | 10 µM
co-treatment: AZD3965 100 nM | 93.5 | 105 | 100 | 98.6 | 104
co-treatment: DMSO vehicle | 96.6 | 102 | 101 | 97.1 | 103
co-treatment: GSK2194069 100 nM | 85.8 | 95.9 | 100 | 89 | 94.2
co-treatment: pictilisib 100 nM | 89.3 | 104 | 102 | 94.9 | 108

HL-60 [62]
Settings | area under dose-response curve
co-treatment: AZD3965 100 nM | < 0.0301
co-treatment: DMSO vehicle | < 0.0301
co-treatment: GSK2194069 100 nM | < 0.0301
co-treatment: pictilisib 100 nM | < 0.0301
